Results published in publication PMC12669040, “Tumour-specific STING agonist synthesis via a two-component prodrug system” (Nature Chemistry, 2025).
Values joined by “and” are separate entries in the source; they are usually repeats but may differ in a detail not shown here. Equal entries are not always repeated. Where two headings read alike, the source gives them in different places.

Columns and labels:
[1] = tested on: THP-1 Lucia ISG cells (interferon pathway); assay: Potency test of purified dimers on THP-1 Lucia ISG reporter cells; format: cell-based, human; conditions: for Raw readings: replicates 1-3; for fold induction at 0.000508053 µM: Concentration 0.508053 nM; for fold induction at 0.00152416 µM: Concentration 1.52416 nM; for fold induction at 0.00457247 µM: Concentration 4.57247 nM; for fold induction at 0.0137174 µM: Concentration 13.7174 nM; for fold induction at 0.123457 µM: Concentration 123.457 nM; for fold induction at 0.37037 µM: Concentration 370.37 nM; for fold induction at 1.11111 µM: Concentration 1111.11 nM; for fold induction at 10 µM: Concentration 10000 nM; for EC50: three biological replicates, mean ± s.d., read-out: EC50 THP-1
Experimental: Cells were pelleted (150g, 10 min) and resuspended in the growth medium (40% conditioned) at a density of 1 × 10^6 cells ml^−1. The cell suspension was dispensed (50 µl each well) into a lidded white 96-well plate (BrandTech 781665). Test compounds or DMSO control were diluted in the growth medium and sterilized by filtering through 0.22-µm polyethersulfone (PES) membranes (Merck SLGP033RS). […] Upon cooling down to room temperature, 50 µl of reconstituted luciferase substrate (InvivoGen QUANTI-Luc) was added to each well via the injector of the plate reader (Molecular Devices SpectraMax i3x), and the luminescence output was recorded (4 s delay, 0.1 s integration). Raw signals were divided by the averaged signal of the DMSO-treated control wells and reported in relative luminescence unit (RLU). The dose–response curve of each replicate was fitted individually using the standard 4PL model (GraphPad Prism). The EC50 value of each compound was averaged from three independent experiments and reported as mean ± s.e.m.

[2] = biological target: T1, wild-type human STING LBD (hSTINGwt 138-379) (Homo sapiens, UniProt Q86WV6, H232R); assay: Isothermal titration calorimetry (ITC), reverse titration; format: binding
T1 construct: SUMO (N, cleaved yes); made in house; host or cells: Escherichia coli BL21 (DE3)
T1 sequence (Q86WV6 138-379 H232R): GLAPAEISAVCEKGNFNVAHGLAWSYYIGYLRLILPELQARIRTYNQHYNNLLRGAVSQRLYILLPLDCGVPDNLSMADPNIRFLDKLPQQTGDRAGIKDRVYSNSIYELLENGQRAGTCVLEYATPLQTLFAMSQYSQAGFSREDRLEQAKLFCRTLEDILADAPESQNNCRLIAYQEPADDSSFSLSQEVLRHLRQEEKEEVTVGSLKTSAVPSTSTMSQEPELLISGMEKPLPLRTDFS
Experimental: Escherichia coli BL21 (DE3) (Thermo Scientific EC0114) was transformed with a pET28a plasmid (Genscript) harbouring the codon-optimized sequence of SUMO-hSTINGwt (aa138-379). Transformed BL21 cells were inoculated into LB medium (50 µg ml^−1 kanamycin) and incubated at 180 rpm, 37 °C overnight. The overnight culture was then diluted (1:100 dilution) in 2× YT medium (50 µg ml^−1 kanamycin) and incubated at 180 rpm, 37 °C until optical density at 600 nm (OD600) reached 0.6 (approximately 3 h). The bacterial culture was then cooled to 16 °C, induced with 0.5 mM isopropyl 1-thio-D-galactopyranoside and incubated overnight at 180 rpm, 16 °C. The bacterial cells were pelleted at 4,000g for 30 min, resuspended in 20 ml of lysis buffer (25 mM HEPES pH 7.5, 150 mM NaCl, 20 mM imidazole and 2 mM TCEP supplied with 2 tablets of cOmplete mini EDTA-free protease inhibitors) and disrupted by sonication on ice. The total lysate was clarified by centrifugation at 22,000g for 30 min. The supernatant was collected and filtered through a 0.45-µm filter (Millipore SLHAR33SS). The clarified lysate was then incubated on a roller with 10 ml bed volume of Ni-NTA resin (Thermo Scientific 88223) at 4 °C for 1 h. The Ni-NTA resin was then packed in a column, flushed with 20 ml of wash buffer (25 mM HEPES pH 7.5, 150 mM NaCl and 20 mM imidazole) and eluted with 40 ml of elution buffer (25 mM HEPES pH 8.0, 150 mM NaCl and 250 mM imidazole). The eluted protein was concentrated to approximately 5 ml (Millipore Amicon 10 kDa molecular weight cut-off (MWCO)) and buffer-exchanged into storage buffer (25 mM HEPES pH 7.5 and 150 mM NaCl). TCEP was then added to a final concentration of 2 mM, and 250 units of SUMO protease (Merck SAE0067) were added. The cleavage reaction mixture was left to stand at 4 °C overnight until LC–MS analysis indicated the completion of the cleavage reaction. The cleavage mixture was incubated with 10 ml bed volume of Ni-NTA resin on a roller at 4 °C for 1 h and packed in a disposable column. The flowthrough was collected, and the resin was further flushed with 20 ml of wash buffer. The eluted fractions were combined, concentrated and further purified by size-exclusion chromatography (Cytiva, Superdex 200 Increase 10/300 GL). The purified protein in storage buffer was concentrated to 330 µM (dimer concentration) as determined by bicinchoninic acid (BCA) assay, aliquoted, flash-frozen in liquid nitrogen and stored at −80 °C for future use.
The binding constants of purified dimers were measured by ITC (Malvern Panalytical AutoITC200) in a reverse-titration format. Stock DMSO solutions of each dimer were dissolved in titration buffer (25 mM HEPES pH 7.5 and 150 mM NaCl) to a final concentration of 25 µM and added to the titration cell. The syringe was filled with 250 µM of purified STING in a matching buffer. Titration was performed at 25 °C with the following parameters: 750 rpm stirring, 0.2 µl initial injection followed by 2-µl injections of the […] every 120 s. Titration of STING protein into blank buffer was separately performed and subtracted from the raw data before the analysis. The background-subtracted titration curves were fitted with the built-in Origin software using the standard one-site model.
Extended Data Fig. 2 Isothermal titration calorimetry (ITC) data for binding constant measurements. Purified hSTINGwt138-379 (250 μM of homodimer) was titrated into each dimer (25 μM) dissolved in a matching buffer (25 mM HEPES pH 7.5, 150 mM NaCl) at 25 °C and 750 rpm stirring. Binding constants were reported as the average from duplicate measurements.

[3] = Homo sapiens, THP1-Lucia ISG, 24 h, three replicates, read-out: Processed reporter response per replicate (reading relative to DMSO)
[4] = Homo sapiens, THP1-Lucia ISG, 24 h

Compound: COc1cc2sc(C(=O)CCC(=O)O)cc2cc1CCCSc1cc2cc(C(=O)CCC(=O)O)sc2cc1OC [Compound D4]
- Raw readings ([1]; Conc 0.508053 nM): 972 RLU and 1002 RLU and 881 RLU
- Raw readings ([1]; Conc 1.52416 nM): 820 RLU and 522 RLU and 439 RLU
- Raw readings ([1]; Conc 4.57247 nM): 921 RLU and 829 RLU and 583 RLU
- Raw readings ([1]; Conc 13.7174 nM): 721 RLU and 644 RLU and 533 RLU
- Raw readings ([1]; Conc 41.1523 nM): 942 RLU and 783 RLU and 992 RLU
- Raw readings ([1]; Conc 123.457 nM): 1083 RLU and 911 RLU and 1043 RLU
- Raw readings ([1]; Conc 370.37 nM): 775 RLU and 737 RLU and 829 RLU
- Raw readings ([1]; Conc 1111.11 nM): 962 RLU and 1173 RLU and 1233 RLU
- Raw readings ([1]; Conc 3333.33 nM): 1143 RLU and 434 RLU and 1233 RLU
- Raw readings ([1]; Conc 10000 nM): 8812 RLU and 7169 RLU and 7929 RLU
- fold induction at 0.000508053 µM [1, 3]: 1.37
- fold induction at 0.00152416 µM [1, 3]: 0.714
- fold induction at 0.00457247 µM [1, 3]: 1.13
- fold induction at 0.0137174 µM [1, 3]: 0.881
- fold induction at 0.0411523 µM ([1]; Homo sapiens, THP1-Lucia ISG, 24 h, Concentration 41.1523 nM, three replicates, read-out: Processed reporter response per replicate (reading relative to DMSO)): 1.07
- fold induction at 0.123457 µM [1, 3]: 1.25
- fold induction at 0.37037 µM [1, 3]: 1.01
- fold induction at 1.11111 µM [1, 3]: 1.6
- fold induction at 10 µM [1, 3]: 9.81
- EC50 [1, 4]: > 10000 nM

Compound: COc1cc2sc(C(=O)CCC(=O)O)cc2cc1SCSc1cc2cc(C(=O)CCC(=O)O)sc2cc1OC [Compound D5]
- Raw readings ([1]; Conc 0.508053 nM): 1203 RLU and 820 RLU and 682 RLU
- Raw readings ([1]; Conc 1.52416 nM): 644 RLU and 783 RLU and 699 RLU
- Raw readings ([1]; Conc 4.57247 nM): 790 RLU and 1094 RLU and 558 RLU
- Raw readings ([1]; Conc 13.7174 nM): 2256 RLU and 4162 RLU and 2105 RLU
- Raw readings ([1]; Conc 41.1523 nM): 27829 RLU and 66900 RLU and 34361 RLU
- Raw readings ([1]; Conc 123.457 nM): 93770 RLU and 170286 RLU and 89246 RLU
- Raw readings ([1]; Conc 370.37 nM): 121713 RLU and 224782 RLU and 129344 RLU
- Raw readings ([1]; Conc 1111.11 nM): 143643 RLU and 288417 RLU and 167064 RLU
- Raw readings ([1]; Conc 3333.33 nM): 169624 RLU and 310357 RLU and 172333 RLU
- Raw readings ([1]; Conc 10000 nM): 161133 RLU and 278063 RLU and 147917 RLU
- fold induction at 0.00152416 µM [1, 3]: 0.881
- fold induction at 0.123457 µM [1, 3]: 128
- fold induction at 0.37037 µM [1, 3]: 166
- fold induction at 1.11111 µM [1, 3]: 196
- fold induction at 3.33333 µM ([1]; Homo sapiens, THP1-Lucia ISG, 24 h, Concentration 3333.33 nM, three replicates, read-out: Processed reporter response per replicate (reading relative to DMSO)): 232
- fold induction at 10 µM [1, 3]: 220
- EC50 [1, 4]: 112 ± 6 nM
- Kd ([2]; 25 °C, average of duplicate measurements, read-out: Kd hSTINGwt (binding constant, ITC)): 32 nM
- Kd ([2]; ITC run _01, read-out: Kd): 33 nM
- Kd ([2]; ITC run _02, read-out: Kd): 31 nM

Compound: COc1cc2sc(C(=O)CCC(=O)O)cc2cc1SCCCSc1cc2cc(C(=O)CCC(=O)O)sc2cc1OC [Compound D6]
- Raw readings ([1]; Conc 0.508053 nM): 775 RLU and 627 RLU and 744 RLU
- Raw readings ([1]; Conc 1.52416 nM): 1043 RLU and 675 RLU and 1023 RLU
- Raw readings ([1]; Conc 4.57247 nM): 1143 RLU and 972 RLU and 595 RLU
- Raw readings ([1]; Conc 13.7174 nM): 992 RLU and 713 RLU and 1033 RLU
- Raw readings ([1]; Conc 41.1523 nM): 501 RLU and 595 RLU and 1053 RLU
- Raw readings ([1]; Conc 123.457 nM): 890 RLU and 1002 RLU and 706 RLU
- Raw readings ([1]; Conc 370.37 nM): 1023 RLU and 470 RLU
- Raw readings ([1]; Conc 1111.11 nM): 689 RLU and 699 RLU and 1023 RLU
- Raw readings ([1]; Conc 3333.33 nM): 595 RLU and 992 RLU and 806 RLU
- Raw readings ([1]; Conc 10000 nM): 722 RLU and 829 RLU and 644 RLU
- fold induction at 0.000508053 µM [1, 3]: 0.858
- fold induction at 0.00152416 µM [1, 3]: 0.923
- fold induction at 0.00457247 µM [1, 3]: 1.33
- fold induction at 0.0137174 µM [1, 3]: 0.975
- fold induction at 0.123457 µM [1, 3]: 1.37
- fold induction at 1.11111 µM [1, 3]: 0.956
- fold induction at 10 µM [1, 3]: 1.13
- EC50 [1, 4]: > 10000 nM
